≈ marks a conversion by molar mass, not a printed value. Where “and” joins values, the source holds several entries; their conditions need not be identical. Equal entries are not always repeated.
How the values were obtained:
[1] = tested on: HFF cells; assay: Cell proliferation assay; format: cell-based, human; details: Table 20; RAPIDLY GROWING CELLS
Description: On the day of the assay, drugs are diluted serially in MEM containing 10% FBS at increments of 1:5 covering a range from 100 μg/ml to 0.03 μg/ml. For drugs that have to be solubilized in DMSO, control wells […] MEM containing 10% DMSO. The media from the wells is then aspirated and 2 ml of each drug concentration is then added to each well. The cells are then incubated in a CO2 incubator at 37°C for 72 hours. At the end of this time, the media-drug solution is removed and the cells washed. […] The cell-media mixture is then pipetted up and down vigorously to break up the cell suspension and 0.2 ml of the mixture is added to 9.8 ml of Isoton III and counted using a Coulter Counter. Each sample is counted three times with three replicate wells per sample.

[2] = tested on: HSV-1; assay: Cytopathic effect inhibition assay, HSV-1; format: cell-based; details: Human alphaherpesvirus 1; Table 19; read-out: EC50 HSV-1 CPE
Description: (§1) Newborn human foreskin were obtained as soon as possible after circumcisions were performed and placed in minimal essential medium (MEM) containing vacomycin, fungizone, penicillin, and gentamycin, at the usual concentrations, for four hours. The medium was then removed, the foreskin minced into small pieces and washed repeatedly until red cells were no longer present. The tissue was then trypsinized using trypsin at 0.25% with continuous stirring for 15 minutes at 37°C in a CO2 incubator. At the end of each 15 minute period, the tissue was allowed to settle to the bottom of the flask. The supernatant containing cells was poured through sterile cheesecloth into a flask containing MEM and 10% fetal bovine serum. The flask containing the medium was kept on ice through out the trypsinizing procedure. After each addition of cells, the cheesecloth was washed with a small amount of MEM containing serum. Fresh trypsin was added each time to the foreskin pieces and the procedure repeated until no more cells became available. The cell containing medium was then centrifuged at 1000 RPM at 4°C for ten minutes. The supernatant liquid was discarded and the cells resuspended in a small amount of MEM with 10% FBS. The cells were then placed in an appropriate number of 25 cm^2 tissue culture flasks. As cells became confluent and needed trypsinization, they were gradually expanded into larger flasks. […]

[3] = tested on: HSV-2; assay: Cytopathic effect inhibition assay, HSV-2; format: cell-based; details: Human alphaherpesvirus 2; Table 19; read-out: EC50 HSV-2 CPE
Description: as §1

[4] = tested on: HSV-1; assay: Plaque reduction assay, HSV-1; format: cell-based; details: Human alphaherpesvirus 1; Table 19
Description: Two days prior to use, HFF cells are plated into six well plates and incubated at 37°C with 5% CO2 and 90% humidity. On the date of assay, the drug is made up at twice the desired concentration in 2X MEM and then serially diluted 1:5 in 2X MEM using six concentrations of drug. The initial starting concentration isusually 200 µg/ml down to 0.06 µg/ml. The virus to be used is diluted in MEM containing 10% FBS to a desired concentration which will give 20 - 30 plaques per well. […] The plates are then incubated for one hour with shaking every fifteen minutes. After the incubation period, an equal amount of 1% agarose was added to an equal volume of each drug dilution. This will give final drug concentrations beginning with 100 µg/ml and ending with 0.03 µg/ml and a final agarose overlay concentration of 0.5%. […] At the end of 4-6 hr incubation period, the stain is aspirated, and plaques counted using a stereomicroscope at 10X magnification. The procedure for the liquid overlay plaque assay is similar to that using the agarose overlay. The procedure for adding the virus is the same as for the regular plaque assay. The drugs are made up in a concentration to be used in MEM with 2% FBS. […] For CMV and VZV, no antibody in the overlay is utilized. For the CMV assay, additional medium without new drug is added on day six and allowed to incubate for a total of 11 days. […]

[5] = tested on: VZV; assay: Plaque reduction assay, VZV; format: cell-based; parameters: EC50 VZV Plaque: unit not given beside the values
Description: Two days prior to use, HFF cells are plated into six well plates and incubated at 37°C with 5% CO2 and 90% humidity. On the date of assay, the drug is made up at twice the desired concentration in 2X MEM and then serially diluted 1:5 in 2X MEM using six concentrations of drug. The initial starting concentration isusually 200 µg/ml down to 0.06 µg/ml. The virus to be used is diluted in MEM containing 10% FBS to a desired concentration which will give 20 - 30 plaques per well. […] The plates are then incubated for one hour with shaking every fifteen minutes. After the incubation period, an equal amount of 1% agarose was added to an equal volume of each drug dilution. This will give final drug concentrations beginning with 100 µg/ml and ending with 0.03 µg/ml and a final agarose overlay concentration of 0.5%. […] At the end of 4-6 hr incubation period, the stain is aspirated, and plaques counted using a stereomicroscope at 10X magnification. […] After addition of the drug, the plates are incubated for ten days. • 2. On days three and six an additional 1 ml overlay with equal amounts of 2X MEM and 1% agarose are added. The procedure for the liquid overlay plaque assay is similar to that using the agarose overlay. The procedure for adding the virus is the same as for the regular plaque assay. The drugs are made up in a concentration to be used in MEM with 2% FBS. […]

[6] = tested on: EBV; assay: EBV screening test (IMN); format: cell-based; details: human gammaherpesvirus 4, Table 19
[7] = tested on: HSV-2 strain 186; assay: Mouse genital HSV-2 model, intravaginal prophylaxis; format: in vivo, Swiss Webster mice; details: Table 21; for Virus Isolated / Dead: 2% intravaginal, one treatment just prior to HSV-2 challenge, 15 mice; for Virus Isolated: number of animals; for Dead: observed to day 21 PI
Description: Sixty female Swiss Webster mice pretreated with medroxyprogesterone acetate were randomized to four groups of 15 to receive either Saline (control), 2 % Acyclovir, 2 % Compound 96, or 0.5% Compound 96. Animals were anesthetized by intraperitoneal injection of sodium pentabarbital and then administered 15 µl of control or test compound intravaginally in one treatment. They were then immediately challenged by intravaginal instillation with 15 µl of a suspension containing 10^4 plaque forming units HSV-2 strain 186. Vaginal swabs were collected on days 1 and 2 post-inoculation (PI) to assess the effect of treatment on vaginal replication in the genital tract. In addition, all animals were examined daily until day 21 PI for mortality and signs of infection (erythema, hair loss and hind limb paralysis).

[8] = tested on: HCMV; details: Table 19
Description: as §1

[9] = tested on: HCMV; assay: Plaque reduction assay, HCMV; format: cell-based; details: Human betaherpesvirus 5, Table 19
Description: Two days prior to use, HFF cells are plated into six well plates and incubated at 37°C with 5% CO2 and 90% humidity. On the date of assay, the drug is made up at twice the desired concentration in 2X MEM and then serially diluted 1:5 in 2X MEM using six concentrations of drug. The initial starting concentration isusually 200 µg/ml down to 0.06 µg/ml. The virus to be used is diluted in MEM containing 10% FBS to a desired concentration which will give 20 - 30 plaques per well. The media is then aspirated from the wells and 0.2 ml of virus is added to drug toxicity wells. The plates are then incubated for one hour with shaking every fifteen minutes. After the incubation period, an equal amount of 1% agarose was added to an equal volume of each drug dilution. This will give final drug concentrations beginning with 100 µg/ml and ending with 0.03 µg/ml and a final agarose overlay concentration of 0.5%. The drug agarose mixture is applied to each well in 2 ml volume and the plates then incubated for three days, after which the cells were stained with a 1.5 % solution of neutral red. At the end of 4-6 hr incubation period, the stain is aspirated, and plaques counted using a stereomicroscope at 10X magnification.
The procedure is essentially the same as for HSV analysis with the following minor changes. […]

[10] = 2%, mean log10 viral titers ± SEM, infected animals only

In the case of `O=c1[nH]c(=O)n([C@@H]2O[C@H](CO)[C@@H](O)[C@@H]2F)cc1I` [FIAU, 2'-fluoro-5-iodo-arabinosyl-uracil], the “TOXICITY ASSAYS - IC50 CELL PROLIFERATION” value [1] is reported as 3.3 MCG/ML and 8.4 MCG/ML.

`Nc1nc2c(ncn2COCCO)c(=O)[nH]1` [Acyclovir] gave an EC50 [2] of 0.2 µg/mL (≈ 0.888 µM), an EC50 [3] of 0.7 µg/mL (≈ 3.11 µM) and an EC50 [4] of 0.2 µg/mL (≈ 0.888 µM). For the same compound, the EC50 ([5]; Human alphaherpesvirus 3, Table 19) was 3.2 µg/mL (≈ 14.2 µM), the “EC50 VZV Plaque” value ([5]; Table 19, listed as ACV) was 4.4 and 3.1 and 3.0 and the EC50 [6] was 6 µg/mL (≈ 26.6 µM). The “Virus Isolated” value [7] was 12, the “Virus Isolated” value ([7]; listed as acyclovir) was 12/15 and the Dead [7] was 12. For the same compound, the Dead ([7]; listed as acyclovir) was 12/15, the “Vaginal Virus Titer Day 1” value [7, 10] was 1.96 ± 0.38 log10 and the “Vaginal Virus Titer Day 2” value [7, 10] was 3.82 ± 0.38 log10.

For `Nc1nc2c(ncn2COC(CO)CO)c(=O)[nH]1` [DHPG], the EC50 HCMV CPE [8] was 0.8 µg/mL (≈ 3.13 µM) and the EC50 [9] was 0.7 µg/mL (≈ 2.74 µM).
